In patent US8124371B2, “Compositions and methods for destabilizing lysosomes to increase oncogenic or aberrant protein degradation” (priority 2003, dated 2012):
Where a SMILES comes first, the peptide text is derived from it. [ ]: non-standard residue; d: D form. The star is where a group is joined. Nle = CCCC[C@H](N)C(=O)O; Cbz = O=C(OCc1ccccc1)*; CH2F = FC*

Key:
HA-tagged PML/RARα = assay: In vitro degradation assay with lysates of NB4-S1 cells; type: biochemical; conditions: for blocking of PML/RARα degradation by lysates of arsenic-treated cells: inhibitor added to in vitro degradation assay
Method: Cell lysates of NB4-S1 cells, either treated for 72 hours with arsenic (1 μM) or left untreated, were obtained using a mild-lysis buffer that supported lysosomal enzymatic activity. In vitro degradation assays were performed using these lysates and HA-tagged PML/RARα was used as a target for degradation.

NB4-S1 APL cells [1] = assay: Apoptosis, Hoechst staining of nuclear DNA; type: cell-based; conditions: 20 μM
Method: (§1) Cell differentiation was evaluated using a nitroblue tetrazolium reduction assay, wherein the presence blue formazan deposits under light microscopy is indicative of differentiated cells. Further, apoptosis was evaluated using Hoechst staining of nuclear DNA wherein the DNA was characterized morphologically by nuclear condensation and fragmentation of chromosomes.
The percentage of apoptotic cells was determined. This experiment was performed independently three times and three random fields were selected to assess the percentage of apoptotic cells.

[2] = tested on: retinoic acid-sensitive NB4-S1 APL cells; assay: Growth suppression, cell counts (Coulter counter); type: cell-based; conditions: for growth suppressive activity: agent alone, chloroquine ranked over retinoic acid-sensitive and -resistant cells
Method: Three independent experiments were conducted.
To identify other agents which destabilize lysosomes, APL cells were contacted with test agents and the ability of the test agent to induce cell death was evaluated.

APL NB4-S1 cells = assay: Cell differentiation, nitroblue tetrazolium reduction assay; type: cell-based; conditions: 20 μM, 6 days
Method: as §1

NB4-S1 APL cells [3] = assay: Release of lysosomal proteins / cytochrome c into the cytosolic fraction, SDS-PAGE and immunoblot; type: cell-based; conditions: after 1 μM arsenic treatment
Method: (§2) By way of illustration, arsenic was applied to APL, retinoic acid-sensitive NB4-S1 cells and found to rapidly (within 2 hours) destabilize lysosomes in these leukemic cells as compared to untreated cells in an assay using a lysosome-specific targeting dye and confocal microscopy. […] Conversely, cytochrome c (an activator of caspase-induced apoptosis) was not detected in the cytosol until 96 hours.

[4] = tested on: wild-type cystic fibrosis protein (CFTR); assay: CFTR degradation by cell content of arsenic-exposed COS cells; type: biochemical; conditions: CFTR over-expressed in MDCK cells; cell content of COS exposed to arsenic
Source text: (§3) This arsenic-activated degradation program was also engaged by non-leukemic cells. […] Accordingly, this lysosome-dependent degradative pathway can be employed as a general therapeutic target for the destruction of oncogenic (e.g., PML/RARα) or aberrant (e.g., CFTR) proteins in the prevention and treatment of cancer or other diseases which are associated with said proteins. Further, lysosome destabilization can be used to identify other small molecule activators which, like arsenic, would have therapeutic activity via induced destabilization of lysosomes that would in turn eliminate oncogenic or other aberrant proteins by triggering their destruction.

NB4-S1 cells = assay: Lysosome destabilization, lysosome-specific targeting dye and confocal microscopy; type: cell-based; conditions: compared to untreated cells
Method: as §2

[5] = tested on: isolated lysosomes from NB4 APL cells; assay: Degradation of isolated lysosomes in vitro
Source text: as §3

CCCC[C@@H](C=O)NC(=O)[C@H](CC(C)C)NC(=O)[C@H](CC(C)C)NC(C)=O [ALLN] (Ac-Leu-Leu-[Nle]-aldehyde)
blocking of PML/RARα degradation by lysates of arsenic-treated cells (HA-tagged PML/RARα): did not block PML/RARα degradation

CCN(CC)CCCC(C)Nc1ccnc2cc(Cl)ccc12 (centres unmarked) [Chloroquine, 7-chloro-4-(4-diethylamino-1-methylbutylamino) quinoline]
induction of apoptosis (NB4-S1 APL cells [1]): exposure time-dependent
% Apoptosis (NB4-S1 APL cells [1]; 24 hours): 16%
% Apoptosis (NB4-S1 APL cells [1]; 48 hours): 20%
% Apoptosis (NB4-S1 APL cells [1]; 72 hours): 30%
growth inhibitory effect in combination with retinoic acid ([2]; chloroquine 20 μM combined with retinoic acid 0.1 μM, FIG. 1A): additive growth inhibitory effect
induction of differentiation (APL NB4-S1 cells): does not induce differentiation

CN(C)CCCN1c2ccccc2CCc2ccccc21 [Imipramine]
growth suppressive activity [2]: some growth suppressive activity

CCCCCCCCCCCCC/C=C/[C@@H](O)[C@H](CO)NCCCCCCCC [N-octyl-D-erythro-sphingosine]
growth suppressive activity [2]: some growth suppressive activity

[AsH3] [arsenic]
cathepsin B detectable in the cytosolic fraction, earliest time (NB4-S1 APL cells [3]): 30 min
cytochrome c not detected in the cytosol until (NB4-S1 APL cells [3]): 96 h
lysosomal protein esterase detectable in the cytosolic fraction, earliest time (NB4-S1 APL cells [3]): 5 min
PML/RARα degradation by cell lysates of treated NB4-S1 cells (HA-tagged PML/RARα; cells treated 72 hours, 1 μM, versus untreated cell lysates): rapidly degraded
CFTR degradation [4]: observed to be degraded
time to destabilize lysosomes (NB4-S1 cells): ≤ 2 h
degradation of isolated lysosomes upon treatment [5]: exhibited degradation in vitro

CC(NC(=O)C(NC(=O)OCc1ccccc1)C(C)C)C(=O)NC(CC(=O)O)C(=O)CF (stereo not drawn) [zVAD] (Cbz-Val-Ala-Asp-CH2F; configuration not given here)
blocking of PML/RARα degradation by lysates of arsenic-treated cells (HA-tagged PML/RARα): did not block PML/RARα degradation
